Measurements taken from patent US20250360167A1 (Keryx Biopharmaceuticals, Inc., priority 2013, published 2025).

How the values were obtained:
serum phosphorus = assay: Phase 3 trial (Example 1), four-week placebo-controlled Efficacy Assessment Period: serum phosphorus; assay type: in vivo, human; settings: for Serum Phosphorus, Mean / Serum Phosphorus, Median: Efficacy Assessment Period; for Serum Phosphorus, Mean / Serum Phosphorus, Median / Serum Phosphorus, LS Mean / Serum Phosphorus, Treatment Differences, LS Mean (KRX-0502) − LS Mean (Placebo), (SE) / Serum Phosphorus, Change from Baseline, Mean / Serum Phosphorus, Change from Baseline, Median: Table 14; for Serum Phosphorus, Change from Baseline, Mean / Serum Phosphorus, Change from Baseline, Median: Week-52 baseline
Excerpt: This trial was a three-period, multicenter, safety and efficacy clinical trial.
Period 3 (Efficacy Assessment Period). Following the Safety Assessment Period, those patients randomized to treatment with ferric citrate entered a four-week, randomized, open-label, placebo-controlled Efficacy Assessment Period.
Serum phosphorus and calcium were checked at Visit 5 (Week 1), and every two weeks during the first 12 weeks after Visit 4 (Randomization Visit), and monthly for the rest of the Safety Assessment Period. During the Efficacy Assessment Period, serum phosphorus and calcium were drawn weekly. These values guided study drug administration. While on study drug, the use of other phosphate binders was not permitted. […] The titration of calcium acetate and sevelamer carbonate throughout the 52-week Safety Assessment Period were according to the current package inserts for these agents and/or at the discretion of the site PI.
Serum phosphorus and calcium were performed at Screening (Visit 0); weekly during the Washout Period after Visit 1 (Week −2); at Visit 4 (Randomization Visit); at Visits 5 (Week 1), 6 (Week 2), 7 (Week 4), 8 (Week 6), 9 (Week 8), 10 (Week 10), 11 (Week 12), 12 (Week 16), 13 (Week 20), 14 (Week 24), 15 (Week 28), 16 (Week 32), 17 (Week 36), 18 (Week 40), 19 (Week 44), 20 (Week 48), and 21 (Week 52) of the 52-week Safety Assessment Period; and at Visits 22 (Week 53), 23 (Week 54), 24 (Week 55) and 25 (Week 56) of the Efficacy Assessment Period.
There were two unique and distinct baseline assessments. The baseline for the Safety Assessment Period was the Randomization Visit (Visit 4) and was defined as “Week-O-baseline.” The baseline for the Efficacy Assessment Period was the last visit of the Safety Assessment Period (Visit 21, Week 52) and was defined as “study-baseline.”
The primary efficacy variable was analyzed via an ANCOVA model with treatment as the fixed effect and study-baseline as the covariate. Between-treatment differences were estimated and two-sided 95% confidence intervals for the differences were presented.

[1] = Phase 3 trial (Example 1): hospitalizations, cardiac severe adverse events; assay type: in vivo, human
Method: Safety was assessed by recording and monitoring adverse events, concomitant medication use, physical examinations, and sequential blood by treatment assignment. Rates of adverse events were summarized overall and by organ system class, preferred term, severity, and suspected relationship to study drug by treatment assignment. AEs were summarized for the Washout Period, Safety Assessment Period, and Efficacy Assessment Period separately by treatment assignment. The changes from baseline in laboratory parameters over time were summarized by treatment assignment.

[2] = Active Control n = 149, Ferric Citrate n = 289
[3] = Ferric Citrate vs Active Control
[4] = percent of patients, Ferric Citrate N = 289, Active Control N = 149

iron (+3), x (1, 2, 3-propanetricarboxylic acid, 2-hydroxy-), y (H2O) [KRX-0502]
Mean Serum Phosphorus (serum phosphorus; End of Treatment (Week 56), LOCF, Table A): 4.9 mg/dL | Serum Phosphorus, Mean (serum phosphorus; Week 52 Baseline): 5.16 | Serum Phosphorus, Median (serum phosphorus; Week 52 Baseline): 5.10 | Serum Phosphorus, LS Mean (serum phosphorus; Week 53, ANCOVA): 4.92 | Serum Phosphorus, Mean (serum phosphorus; Week 53): 4.90 | Serum Phosphorus, Median (serum phosphorus; Week 53): 4.95 | Serum Phosphorus, Treatment Differences, LS Mean (KRX-0502) − LS Mean (Placebo), (SE) (serum phosphorus; Week 53): −1.73 (0.21) | Serum Phosphorus, Change from Baseline, Mean (serum phosphorus; Week 53): −0.31 | Serum Phosphorus, Change from Baseline, Median (serum phosphorus; Week 53): −0.30 | Serum Phosphorus, LS Mean (serum phosphorus; Week 54, ANCOVA): 4.80 | Serum Phosphorus, Mean (serum phosphorus; Week 54): 4.78 | Serum Phosphorus, Median (serum phosphorus; Week 54): 4.70 | Serum Phosphorus, Treatment Differences, LS Mean (KRX-0502) − LS Mean (Placebo), (SE) (serum phosphorus; Week 54): −2.08 (0.22) | Serum Phosphorus, Change from Baseline, Mean (serum phosphorus; Week 54): −0.36 | Serum Phosphorus, Change from Baseline, Median (serum phosphorus; Week 54): −0.40 | Serum Phosphorus, LS Mean (serum phosphorus; Week 55, ANCOVA): 4.76 | Serum Phosphorus, Mean (serum phosphorus; Week 55): 4.75 | Serum Phosphorus, Median (serum phosphorus; Week 55): 4.60 | Serum Phosphorus, Treatment Differences, LS Mean (KRX-0502) − LS Mean (Placebo), (SE) (serum phosphorus; Week 55): −2.18 (0.23) | Serum Phosphorus, Change from Baseline, Mean (serum phosphorus; Week 55): −0.41 | Serum Phosphorus, Change from Baseline, Median (serum phosphorus; Week 55): −0.50 | Serum Phosphorus, LS Mean (serum phosphorus; Week 56, ANCOVA): 4.94 | Mean Serum Phosphorus, Least Squares (LS) Mean Difference from Placebo (serum phosphorus; Week 56, ANCOVA, Table A): -2.3 mg/dL | Serum Phosphorus, Mean (serum phosphorus; Week 56): 4.92 | Serum Phosphorus, Median (serum phosphorus; Week 56): 4.60 | Serum Phosphorus, Treatment Differences, LS Mean (KRX-0502) − LS Mean (Placebo), (SE) (serum phosphorus; Week 56): −2.28 (0.23) | Serum Phosphorus, Change from Baseline, Mean (serum phosphorus; Week 56): −0.23 | Serum Phosphorus, Change from Baseline, Median (serum phosphorus; Week 56): −0.50 | Mean Serum Phosphorus (serum phosphorus; baseline Week 52, Table A): 5.2 mg/dL | Mean Serum Phosphorus, Change from Baseline at Week 56 (serum phosphorus; baseline Week 52, Table A): -0.3 mg/dL | Average Hospitalizations per Subject [1, 2]: 0.63 | Subjects with One or More Hospitalizations, % of Study Subjects [1, 2]: 34.6% | Total Hospitalizations [1, 2]: 181 | Average Hospitalizations per Subject, % Improvement [1, 3]: 24.1% | Average Hospitalizations per Subject, Difference [1, 3]: −0.20 | Subjects with One or More Hospitalizations, Relative % Difference ([1]; Ferric Citrate vs Active Control, p = 0.024): −24.2% | hospitalizations related to cardiac severe adverse events ([1]; as compared to Active Control): able to reduce hospitalizations related to cardiac severe adverse events | Subjects with One or More Hospitalizations ([1]; number of subjects, Active Control n = 149, Ferric Citrate n = 289): 100 | Cardiac Disorders, % [1, 4]: 4.8% | Gastrointestinal Disorders, % [1, 4]: 6.2% | Infections, % [1, 4]: 12.1%
